What was measured:
[1] = physical and chemical stability of palonosetron HCl admixed with dexamethasone; format: physicochemical; conditions: palonosetron HCl 5 or 25 μg/mL with dexamethasone 0.2, 0.4 or 0.33 mg/mL in 5% dextrose or 0.9% sodium chloride; 14 days at 4° C., 48 hours at 23° C.
Method: The physical and chemical stability of palonosetron HCl 0.25 mg admixed with dexamethasone (as sodium phosphate) 10 mg or 20 mg in 5% dextrose injection or 0.9% sodium chloride injection in polyvinyl chloride (PVC) minibags, and also admixed with dexamethasone (as sodium phosphate) 3.3 mg in 5% dextrose injection or 0.9% sodium chloride injection in polypropylene syringes at 4° C. in the dark for 14 days and at 23° C. exposed to normal laboratory fluorescent light over 48 hours, was studied. Test samples of palonosetron HCl 5 μg/mL with dexamethasone (as sodium phosphate) 0.2 mg/mL and also 0.4 mg/mL were prepared in polyvinyl chloride (PVC) minibags of each infusion solution. Additionally, palonosetron HCl 25 μg/mL with dexamethasone (as sodium phosphate) 0.33 mg/mL in each infusion solution were prepared as 10 mL of test solution in 20-mL polypropylene syringes. […] Physical stability was assessed using visual observation in normal room light and using a high-intensity monodirectional light beam. In addition, turbidity and particle content were measured electronically. Chemical stability of the drug was evaluated by using a stability-indicating high performance liquid chromatographic (HPLC) analytical technique.

[2] = formulation optimization study (concentration ranges, 24 lots); format: physicochemical; conditions: 0.05 mg/mL to 5.0 mg/mL; citrate buffer 0 to 80 mM; EDTA 0 to 0.10%
Method: A formulation optimization study was performed using an experimental design software. Twenty-four lots of drug product were analyzed to investigate the appropriate concentration ranges for palonosetron hydrochloride (0.05 mg/mL to 5.0 mg/mL), citrate buffer (0 to 80 mM) and EDTA (0 to 0.10%).

[3] = physical and chemical stability of palonosetron HCl in infusion solutions (without dexamethasone); format: physicochemical; conditions: 5 and 30 μg/mL in 4 infusion solutions, PVC bags; 14 days at 4° C. in the dark, 48 hours at 23° C. under fluorescent light
Method: The physical and chemical stability of palonosetron HCl was studies in concentrations of 5 μg/mL and 30 μg/mL in 5% dextrose injection, 0.9% sodium chloride injection, 5% dextrose in 0.45% sodium chloride injection, and dextrose 5% in lactated Ringer's injection. The admixtures were evaluated over 14 days at 4° C. in the dark and for 48 hours at 23° C. under fluorescent light. Test samples of palonosetron HCl were prepared in polyvinyl chloride (PVC) bags of the infusion solutions at concentrations of 5 and 30 μg/mL. Evaluations for physical and chemical stability were performed on samples taken initially and after 1, 3, 5, 7, and 14 days of storage at 4° C. and after 1, 4, 24, and 48 hours at 23° C. Physical stability was assessed using visual observation in normal room light and using a high-intensity monodirectional light beam. In addition, turbidity and particle content were measured electronically. Chemical stability of the drug was evaluated by using a stability-indicating high performance liquid chromatographic (HPLC) analytical technique.

[4] = effect of pH on stability of formulations containing palonosetron hydrochloride at 80° C.; format: physicochemical; conditions: pH 2.0, 5.0, 7.4 and 10.0 tested
Method: A study was conducted to determine the effect of pH on formulations containing palonosetron hydrochloride, measuring the stability at 80° C. at pH 2.0, 5.0, 7.4, and 10.0.

[5] = clinical investigations; cited from earlier work
5-HT3 receptor = target: T1, 5-HT3 receptor (Homo sapiens, UniProt P46098); conditions: clinical investigations; cited from earlier work
T1 sequence (P46098 24-478): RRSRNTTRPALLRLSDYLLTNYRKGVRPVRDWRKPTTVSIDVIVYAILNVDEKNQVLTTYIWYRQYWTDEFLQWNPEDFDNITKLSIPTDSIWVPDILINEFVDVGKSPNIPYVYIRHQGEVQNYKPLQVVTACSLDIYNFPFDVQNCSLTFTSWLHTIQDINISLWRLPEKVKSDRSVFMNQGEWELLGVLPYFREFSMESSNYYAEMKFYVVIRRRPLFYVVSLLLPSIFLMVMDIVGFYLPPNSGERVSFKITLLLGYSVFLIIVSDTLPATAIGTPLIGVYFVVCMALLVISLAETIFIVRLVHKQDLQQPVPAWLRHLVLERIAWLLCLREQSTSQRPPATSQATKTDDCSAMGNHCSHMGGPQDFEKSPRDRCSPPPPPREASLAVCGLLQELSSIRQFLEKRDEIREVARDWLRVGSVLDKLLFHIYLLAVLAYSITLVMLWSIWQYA

Structure (SMILES): C[C@@H]1C[C@H]2[C@@H]3CCC4=CC(=O)C=C[C@]4(C)[C@@]3(F)[C@@H](O)C[C@]2(C)[C@@]1(O)C(=O)CO [dexamethasone]
- chemical stability (loss of drug, HPLC) [1]: little or no loss

Structure (SMILES): Cl.O=C1c2cccc3c2[C@H](CCC3)CN1[C@@H]1CN2CCC1CC2 [palonosetron hydrochloride]
- physical compatibility (visual, turbidity, particle content) [1]: physically compatible throughout the study
- chemical stability as a function of palonosetron concentration [2]: greatest stability seen at the lowest palonosetron concentrations
- chemical stability (loss of drug, HPLC) [3]: little or no loss
- physical stability (visual, turbidity, particle content) [3]: physically stable throughout the study
- pH of greatest stability [4]: most stable at pH 5.0

Structure (SMILES): O=C1c2cccc3c2[C@H](CCC3)CN1[C@@H]1CN2CCC1CC2 [palonosetron, (3aS)-2,3,3a,4,5,6-Hexahydro-2-[(S)-1-Azabicyclo[2.2.2]oct-3-yl]2,3,3a,4,5,6-hexahydro-1-oxo-1Hbenz[de]isoquinoline]
- half-life [5]: about 40 hours
- potency relative to most existing 5-HT3 receptor antagonists (5-HT3 receptor): an order of magnitude more potent than most existing 5-HT3 receptor antagonists
- reduction of delayed-onset nausea induced by chemotherapeutic agents (5-HT3 receptor): effective to reduce delayed-onset nausea

— US9439854B2, “Liquid pharmaceutical formulations of palonosetron” (Helsinn Healthcare SA, priority 2003, dated 2016)
